Assay results reported in PubChem BioAssay AID248 (DTP/NCI, 2004).
Where “and” joins values, the source holds several entries; their conditions need not be identical. Equal values may be shown once. Inconclusive results and toxic doses are left out. Rule as the data show it: active = T/C of 150% or more; inactive = T/C below 125%.

System: L1210 leukemia ip in BDF1 mice, survival T/C
Experiment: NCI In Vivo Anticancer Drug Screen. Data for tumor model L1210 Leukemia (intraperitoneal) in B6D2F1 (BDF1) mice
Conditions: endpoint: mean survival time, higher = longer survival
Outline: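 Read-out is survival time, reported as the treated-group measurement over the vehicle-control measurement.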

[1] = dose: 5.0 mg/kg/injection, schedule: Q01DX001 (ip), vehicle: saline
[2] = dose: 10.0 mg/kg/injection, schedule: Q01DX001 (ip), vehicle: saline
[3] = dose: 20.0 mg/kg/injection, schedule: Q01DX001 (ip), vehicle: saline
[4] = dose: 100.0 mg/kg/injection, schedule: Q01DX009 (ip), vehicle: saline
[5] = dose: 100.0 mg/kg/injection, schedule: Q04DX003 (ip), vehicle: saline
[6] = dose: 200.0 mg/kg/injection, schedule: Q01DX009 (ip), vehicle: saline
[7] = dose: 200.0 mg/kg/injection, schedule: Q04DX003 (ip), vehicle: saline
[8] = dose: 400.0 mg/kg/injection, schedule: Q04DX003 (ip), vehicle: saline
[9] = dose: 100.0 mg/kg/injection, schedule: Q04DX003 (ip), vehicle: saline with Tween-80
[10] = dose: 200.0 mg/kg/injection, schedule: Q04DX003 (ip), vehicle: saline with Tween-80
[11] = dose: 400.0 mg/kg/injection, schedule: Q04DX003 (ip), vehicle: saline with Tween-80
[12] = dose: 40.0 mg/kg/injection, schedule: Q01DX001 (ip), vehicle: saline
[13] = dose: 100.0 mg/kg/injection, schedule: Q01DX001 (ip), vehicle: saline
[14] = dose: 200.0 mg/kg/injection, schedule: Q01DX001 (ip), vehicle: saline
[15] = dose: 400.0 mg/kg/injection, schedule: Q01DX001 (ip), vehicle: saline
[16] = dose: 100.0 mg/kg/injection, schedule: Q01DX001 (ip), vehicle: Klucel (hydroxypropylcellulose) (HPC)
[17] = dose: 200.0 mg/kg/injection, schedule: Q01DX001 (ip), vehicle: Klucel (hydroxypropylcellulose) (HPC)
[18] = dose: 400.0 mg/kg/injection, schedule: Q01DX001 (ip), vehicle: Klucel (hydroxypropylcellulose) (HPC)

Measured: T/C

C[N+](C)(C)C1(c2ccc(F)cc2)CCCCC1
inactive: [1] 111 % of control | [2] 105 % of control | [3] 111 % of control

CCOC(=O)n1ncnc1N
inactive: [4] 94 % of control | [5] 91 % of control | [6] 98 % of control | [7] 98 % of control | dose: 400.0 mg/kg/injection, schedule: Q01DX009 (ip), vehicle: saline 104 % of control | [8] 95 % of control

O=C(NC(CO)C(O)c1ccc([N+](=O)[O-])cc1)C(Cl)Cl (stereo not drawn)
inactive: [9] 102 % of control | [10] 101 % of control | [11] 106 % of control

COc1ccc(S(=O)(=O)N/N=C/C(=O)O)cc1
inactive: dose: 6.25 mg/kg/injection, schedule: Q01DX009 (ip), vehicle: saline with Tween-80 109 % of control | dose: 12.5 mg/kg/injection, schedule: Q01DX009 (ip), vehicle: saline with Tween-80 117 % of control

CCCCCCC(C)OCC(=O)c1ccccc1 (stereo not drawn)
inactive: dose: 100.0 mg/kg/injection, schedule: Q04DX002 (ip), vehicle: saline 94 % of control | dose: 200.0 mg/kg/injection, schedule: Q04DX002 (ip), vehicle: saline 91 % of control

ClCCN(CCCl)CCNc1ccnc2cc(Cl)ccc12
inactive: [1] 100 % of control | [2] 108 % of control | [3] 117 % of control | [12] 116 % of control

O=C(CSCC(=O)c1ccc(Br)cc1)c1ccc(Br)cc1
inactive: dose: 100.0 mg/kg/injection, schedule: Q04DX003 (ip), vehicle: other 101 % of control | dose: 200.0 mg/kg/injection, schedule: Q04DX003 (ip), vehicle: other 93 % of control | dose: 400.0 mg/kg/injection, schedule: Q04DX003 (ip), vehicle: other 86 % of control

CC(=O)NCC(N)=S
inactive: [13] 102 % of control | [14] 102 % of control | [15] 98 % of control

COC(=O)C1C2OC(C(Br)C2Br)C1C(=O)O (stereo not drawn)
inactive: [9] 100 % of control | [10] 98 % of control | [11] 96 % of control

CCC1=C(C)C(C)OC(C)=C1C (stereo not drawn) (tested in a mixture with another compound)
inactive: [13] 93 % of control | [14] 90 % of control | [15] 93 % of control

BrCc1cc(CBr)c(CBr)cc1CBr
inactive: dose: 12.5 mg/kg/injection, schedule: Q01DX009 (ip), vehicle: acetone 108 % of control | dose: 12.5 mg/kg/injection, schedule: Q04DX003 (ip), vehicle: saline 97 % of control | dose: 25.0 mg/kg/injection, schedule: Q04DX003 (ip), vehicle: saline 98 % of control and 114 % of control | dose: 50.0 mg/kg/injection, schedule: Q04DX003 (ip), vehicle: saline 95 % of control

CC(C)Cc1c(N)nc(=O)[nH]c1C(=O)O
inactive: dose: 75.0 mg/kg/injection, schedule: Q01DX009 (ip), vehicle: Klucel (hydroxypropylcellulose) (HPC) 95 % of control | [16] 96 % of control | dose: 150.0 mg/kg/injection, schedule: Q01DX009 (ip), vehicle: Klucel (hydroxypropylcellulose) (HPC) 98 % of control | [17] 100 % of control | dose: 300.0 mg/kg/injection, schedule: Q01DX009 (ip), vehicle: Klucel (hydroxypropylcellulose) (HPC) 101 % of control | [18] 100 % of control

Nc1nc2c(ncn2C2OC(COP(=O)(O)O)C(O)C2O)c(=O)[nH]1 (stereo not drawn)
inactive: dose: 100.0 mg/kg/injection, schedule: Q01DX005 (ip), vehicle: saline 100 % of control | [4] 101 % of control | dose: 200.0 mg/kg/injection, schedule: Q01DX005 (ip), vehicle: saline 112 % of control | [6] 95 % of control

Cc1ccc(S(=O)(=O)N(CCC(=N)N)C(C)C)cc1
inactive: dose: 25.0 mg/kg/injection, schedule: Q01DX009 (ip), vehicle: saline 91 % of control | dose: 50.0 mg/kg/injection, schedule: Q01DX009 (ip), vehicle: saline 96 % of control | [4] 96 % of control | [5] 104 % of control

CC1CN(Cl)C(=O)N(Cl)C1=O (stereo not drawn)
inactive: [2] 96 % of control | [3] 98 % of control | [12] 92 % of control

CN(C)c1c(Cl)cc([N+](=O)[O-])cc1Cl
inactive: [16] 97 % of control | [17] 95 % of control | [18] 94 % of control

O=C1CCC(N2C(=O)C3CC=CCC3C2=O)C(=O)N1 (stereo not drawn)
inactive: [5] 104 % of control and 109 % of control | [7] 104 % of control and 106 % of control | [8] 97 % of control and 112 % of control

O=C(O)c1cc(Cl)c(O)c(Cl)c1
inactive: dose: 100.0 mg/kg/injection, schedule: Q01DX009 (ip), vehicle: saline with Tween-80 107 % of control | dose: 200.0 mg/kg/injection, schedule: Q01DX009 (ip), vehicle: saline with Tween-80 91 % of control | dose: 400.0 mg/kg/injection, schedule: Q01DX009 (ip), vehicle: saline with Tween-80 101 % of control

Cc1ccccc1Nc1n[nH]c(=O)n1-c1ccccc1C
inactive: dose: 100.0 mg/kg/injection, schedule: Q04DX003 (ip), vehicle: carboxymethylcellulose (CMC) 98 % of control | dose: 200.0 mg/kg/injection, schedule: Q04DX003 (ip), vehicle: carboxymethylcellulose (CMC) 90 % of control | dose: 400.0 mg/kg/injection, schedule: Q04DX003 (ip), vehicle: carboxymethylcellulose (CMC) 106 % of control

Cc1cccc(Cl)c1NC(=O)COc1ccc(Cl)cc1
inactive: dose: 100.0 mg/kg/injection, schedule: Q01DX009 (ip), vehicle: Klucel (hydroxypropylcellulose) (HPC) 102 % of control | dose: 200.0 mg/kg/injection, schedule: Q01DX009 (ip), vehicle: Klucel (hydroxypropylcellulose) (HPC) 89 % of control | dose: 400.0 mg/kg/injection, schedule: Q01DX009 (ip), vehicle: Klucel (hydroxypropylcellulose) (HPC) 93 % of control

CN(C)C=NC(c1ccccc1)c1ccc(Cl)cc1 (stereo not drawn)
inactive: dose: 75.0 mg/kg/injection, schedule: Q01DX009 (ip), vehicle: saline with Tween-80 95 % of control | dose: 150.0 mg/kg/injection, schedule: Q01DX009 (ip), vehicle: saline with Tween-80 95 % of control | dose: 300.0 mg/kg/injection, schedule: Q01DX009 (ip), vehicle: saline with Tween-80 100 % of control

CC12CCC(OC3OC(CO)C(OC4OC(CO)C(O)C(O)C4O)C(O)C3O)CC1CCC1C2CCC2(C)C(C3=CC(=O)OC3)CCC12O (stereo not drawn)
inactive: dose: 10.0 mg/kg/injection, schedule: Q01DX009 (ip), vehicle: saline 102 % of control | dose: 20.0 mg/kg/injection, schedule: Q01DX009 (ip), vehicle: saline 116 % of control | dose: 40.0 mg/kg/injection, schedule: Q01DX009 (ip), vehicle: saline 102 % of control

CC(c1ccc2ccccc2c1)C1CCCCC1C(=O)O (stereo not drawn)
inactive: [9] 96 % of control | [10] 97 % of control | [11] 94 % of control

COC(=O)c1cc(Cl)ccc1OCC(=O)O
inactive: [16] 90 % of control | dose: 100.0 mg/kg/injection, schedule: Q04DX003 (ip), vehicle: Klucel (hydroxypropylcellulose) (HPC) 102 % of control | [17] 93 % of control | dose: 200.0 mg/kg/injection, schedule: Q04DX003 (ip), vehicle: Klucel (hydroxypropylcellulose) (HPC) 101 % of control | [18] 90 % of control | dose: 400.0 mg/kg/injection, schedule: Q04DX003 (ip), vehicle: Klucel (hydroxypropylcellulose) (HPC) 107 % of control
